Assay results as given in article PMC4469266 (Bioorganic & medicinal chemistry letters, 2015).
pKi: −log10 of the molar value.

Target: dopamine D1 receptor (Rattus norvegicus, UniProt P18901)
Experiment: competition autoradiography with 3H-SCH […] in rat brain slices

dopamine D1 receptor, sequence (P18901 whole entry): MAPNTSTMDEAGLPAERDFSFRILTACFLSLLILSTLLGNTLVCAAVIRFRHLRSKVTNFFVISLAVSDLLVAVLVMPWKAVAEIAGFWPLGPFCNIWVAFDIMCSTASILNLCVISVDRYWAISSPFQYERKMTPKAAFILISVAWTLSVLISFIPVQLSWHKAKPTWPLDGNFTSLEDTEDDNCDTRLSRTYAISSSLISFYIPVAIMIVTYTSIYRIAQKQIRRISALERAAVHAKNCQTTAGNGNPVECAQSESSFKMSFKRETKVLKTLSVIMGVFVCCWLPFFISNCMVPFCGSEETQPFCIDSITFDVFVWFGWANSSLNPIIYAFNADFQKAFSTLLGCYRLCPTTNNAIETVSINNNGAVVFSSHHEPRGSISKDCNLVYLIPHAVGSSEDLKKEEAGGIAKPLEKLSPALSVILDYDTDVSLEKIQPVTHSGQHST

- pKi: 7.71
Structure (SMILES): CN1CCc2cc(Cl)c(O)cc2C(c2cccc(NC[C@H](F)[C@@H](O)[C@H](O)[C@H](O)CO)c2)C1 (stereo partly drawn) [compound 7, 7-chloro-8-hydroxy-3-methyl-l-(3’-fluorodeoxyglucaminophenyl)-2,3,4,5-tetrahydro-lH-3-benzazepine]
